Drawing on patent US10676429B2, “Sulfamoyl-arylamides and the use thereof as medicaments for the treatment of hepatitis B” (priority 2012, dated 2020), this text covers EC50 and CC50 for 43 molecules.

What is called EC50 is the concentration at which the effect is half-maximal. A word on the CC50: it is the concentration that lowers cell viability or growth by half. A high value points to lower toxicity to the cells.

Where only a bound is given, the exact number is not on record here.

The subject of data set [1] is HBV. Description: Anti-HBV activity in stable transfected HepG2.2.15 cell line (HBV DNA from secreted virions, realtime PCR). Conditions: HepG2.2.15 cells, 6 days of treatment, secreted virion HBV DNA, read-out: HepG2 2.15 EC50. The class given is cell-based.
Data set [2] concerns HBV. Description: Anti-HBV activity in HepG2.117 cell line (Tet-off, intracellular HBV DNA, realtime PCR). The format is cell-based. The settings on record: HepG2.117 cells, 3 days of treatment, intracellular HBV DNA, read-out: HepG2 117 EC50.
Data set [3] can be described thus: Cytotoxicity in HepG2 cells, 4 days, Resazurin assay. Conditions: human, HepG2 cells.
Where [4] appears, read: Hepatitis B virus, HepG2.2.15, 144 h.
Setting [5] is: Hepatitis B virus, HepG2.117, 72 h.

As for `Cc1cc(NC(=O)c2cccc(S(=O)(=O)N[C@@H]3CCCC[C@H]3O)c2)ccc1F` (racemic) [Compound 130], the values for the EC50 in data set [1] (setting [4]) and in data set [2] (setting [5]) were 880 nM and 1030 nM, respectively. Besides, the CC50 at 4 days in data set [3] was above 25000 nM.
Consider `Cc1cc(NC(=O)c2cccc(S(=O)(=O)N[C@@H]3CCCC[C@@H]3O)c2)ccc1F` (racemic) [Compound 132], for which the EC50 in data set [1] (setting [4]) is 590 nM; in data set [2] (setting [5]), 730 nM. The same molecule returned a CC50 at 4 days in data set [3] above 25000 nM.
On to `COC(=O)N1CCCC(NS(=O)(=O)c2cccc(C(=O)Nc3ccc(F)c(C)c3)c2)C1` (racemic) [Compound 159], for which, in data set [1] (setting [4]), the EC50 was determined as 150 nM. Moreover, the CC50 at 4 days in data set [3] was above 25000 nM.
On to `COC(=O)N1CCCC(NS(=O)(=O)c2cccc(C(=O)Nc3ccc(F)c(C)c3)c2)C1` (racemic) [Compound 159a], for which the EC50 was 170 nM in data set [1] and 860 nM in data set [2].
Take `COC(=O)N1CCCC(NS(=O)(=O)c2cccc(C(=O)Nc3ccc(F)c(C)c3)c2)C1` (racemic) [Compound 159b]: the EC50 in data set [1] came to 160 nM; in data set [2], 230 nM.
Consider `Cc1cc(NC(=O)c2cccc(S(=O)(=O)NC3CC(=O)N(C)C3)c2)ccc1F` (racemic) [Compound 179], for which the CC50 at 4 days in data set [3] is above 25000 nM.
Consider `Cc1cc(NC(=O)c2cccc(S(=O)(=O)NC3CCCC(O)C3)c2)ccc1F` (single isomer, unassigned) [Compound 134a, N-(4-fluoro-3-methyl-phenyl)-3-[[(1R,3S)-3-hydroxycyclohexyl]sulfamoyl]benzamide or N-(4-fluoro-3-methyl-phenyl)-3-[[(1S,3R)-3-hydroxycyclohexyl]sulfamoyl]benzamide], for which the results for the EC50 in data set [1] and in data set [2] were 660 nM and 720 nM, respectively.
The like results for `Cc1cc(NC(=O)c2cccc(S(=O)(=O)NC3CCCC(O)C3)c2)ccc1F` (single isomer, unassigned) [Compound 134b, N-(4-fluoro-3-methyl-phenyl)-3-[[(1R,3S)-3-hydroxycyclohexyl]sulfamoyl]benzamide or N-(4-fluoro-3-methyl-phenyl)-3-[[(1S,3R)-3-hydroxycyclohexyl]sulfamoyl]benzamide] were, in that order, 570 nM and 200 nM.
In the case of `Cc1cc(NC(=O)c2cccc(S(=O)(=O)NC3CCCC(O)C3)c2)ccc1F` (single isomer, unassigned) [Compound 134c, N-(4-fluoro-3-methyl-phenyl)-3-[[(1R,3R)-3 hydroxycyclohexyl]sulfamoyl]benzamide or N-(4-fluoro-3-methyl-phenyl)-3-[[(1S,3S)-3-hydroxycyclohexyl]sulfamoyl]benzamide], the results for the EC50 in data set [1] and in data set [2] were 490 nM and 380 nM, respectively.
In the same order, the values of `Cc1cc(NC(=O)c2cccc(S(=O)(=O)NC3CCCC(O)C3)c2)ccc1F` (single isomer, unassigned) [Compound 134d, N-(4-fluoro-3-methyl-phenyl)-3-[[(1R,3R)-3 hydroxycyclohexyl]sulfamoyl]benzamide or N-(4-fluoro-3-methyl-phenyl)-3-[[(1S,3S)-3-hydroxycyclohexyl]sulfamoyl]benzamide] are 250 nM and 1220 nM.
In the case of `Cc1cc(NC(=O)c2cccc(S(=O)(=O)NC3Cc4ccccc4C3O)c2)ccc1F` (single isomer, unassigned) [Compound 141a, N-(4-fluoro-3-methyl-phenyl)-3-[[(1S,2S)-1-hydroxyindan-2-yl]-sulfamoyl]benzamide or N-(4-fluoro-3-methyl-phenyl)-3-[[(1R,2R)-1-hydroxyindan-2-yl]sulfamoyl]benzamide], the EC50 in data set [1] was found to be 700 nM; in data set [2] it was 1650 nM. This molecule also yielded a CC50 at 4 days in data set [3] above 25000 nM.
`O=C(Nc1ccccc1)c1csc(S(=O)(=O)NC2CCCCC2)n1` [Compound 64]: in data set [2] (setting [5]), the EC50 was determined as 7830 nM. Further, the CC50 at 4 days in data set [3] was above 25000 nM.
Consider `CC1(NS(=O)(=O)c2cccc(C(=O)Nc3ccc(F)cc3)c2)CCOCC1` [Compound 83], for which the EC50 in data set [1] (setting [4]) was 1040 nM; in data set [2] (setting [5]), 1230 nM.
`Cc1cc(NC(=O)c2cccc(S(=O)(=O)NC3CCCC(O)C3)c2)ccc1F` (stereo not shown) [Compound 134]: the EC50 in data set [2] was found to be 570 nM. The CC50 at 4 days in data set [3] was above 25000 nM.
As to `Cc1c(Br)cc(S(=O)(=O)N[C@H]2CCOC2)c(F)c1C(=O)Nc1ccc(F)c(F)c1` [Compound 187], the EC50 in data set [2] (setting [5]) was 950 nM. The molecule further registered a CC50 at 4 days in data set [3] above 25000 nM.
Regarding `Cc1ccc(S(=O)(=O)N[C@H]2CCOC2)c(F)c1C(=O)Nc1ccc(F)c(F)c1` [Compound 188], the concentration for a half-maximal effect (EC50) in data set [2] (setting [5]) was found to be 240 nM. This molecule returned a CC50 at 4 days in data set [3] above 25000 nM.
In the same order, the values of `Cc1cc(NC(=O)c2c(C)ccc(S(=O)(=O)N[C@H]3CCOC3)c2F)ccc1F` [Compound 189] are 350 nM and above 25000 nM.
The like results for `Cc1cc(NC(=O)c2c(C)c(Br)cc(S(=O)(=O)NC3(C)COC3)c2F)ccc1F` [Compound 190] were, in that order, 270 nM and above 25000 nM.
With `Cc1ccc(S(=O)(=O)NC2(C)COC2)c(F)c1C(=O)Nc1cc(F)c(F)c(Cl)c1` [Compound 192], the EC50 in data set [2] (setting [5]) was determined as 190 nM. For the same molecule, the CC50 at 4 days in data set [3] is above 25000 nM.
In the same order, the values of `Cc1ccc(S(=O)(=O)N[C@H](C)C(F)(F)F)c(F)c1C(=O)Nc1cc(F)c(F)c(Cl)c1` [Compound 193] are 100 nM and 13500 nM.
On to `Cc1cc(NC(=O)c2c(F)ccc(S(=O)(=O)N[C@H]3CCOC3)c2F)ccc1F` [Compound 197], for which the EC50 in data set [2] (setting [5]) was 90 nM. Further, the CC50 at 4 days in data set [3] is above 25000 nM.
The like results for `O=C(Nc1ccc(F)c(Br)c1)c1c(F)ccc(S(=O)(=O)N[C@H]2CCOC2)c1F` [Compound 198] were, in that order, 150 nM and above 25000 nM.
The like results for `N#Cc1cc(NC(=O)c2c(F)ccc(S(=O)(=O)N[C@H]3CCOC3)c2F)ccc1F` [Compound 199] were, in that order, 430 nM and above 25000 nM.
Consider `O=C(Nc1ccc(F)c(C(F)(F)F)c1)c1c(F)ccc(S(=O)(=O)N[C@H]2CCOC2)c1F` [Compound 200], for which the EC50 in data set [2] (setting [5]) worked out at 450 nM. In data set [3], the CC50 at 4 days is above 25000 nM.
Take `CC(C)NS(=O)(=O)c1ccc(F)c(C(=O)Nc2ccc(F)c(F)c2)c1F` [Compound 202]: the EC50 in data set [2] (setting [5]) was determined as 110 nM. The same molecule returned a CC50 at 4 days in data set [3] above 25000 nM.
The like results for `CC(C)NS(=O)(=O)c1ccc(F)c(C(=O)Nc2cccc(C(F)(F)F)c2)c1F` [Compound 203] were, in that order, 240 nM and 16700 nM.
The like results for `Cc1cc(NC(=O)c2c(C)ccc(S(=O)(=O)NC3(C)COC3)c2F)ccc1F` [Compound 204] were, in that order, 90 nM and above 25000 nM.
In the same order, the values of `Cc1cc(NC(=O)c2c(C)ccc(S(=O)(=O)NC(C)(C)C)c2F)ccc1F` [Compound 205] are 350 nM and above 25000 nM.
On to `Cc1ccc(S(=O)(=O)NC(C)(C)C)c(F)c1C(=O)Nc1ccc(F)c(F)c1` [Compound 206], for which the EC50 in data set [2] (setting [5]) was found to be 640 nM. The CC50 at 4 days in data set [3] was above 25000 nM.
The like results for `CC1(NS(=O)(=O)c2ccc(Cl)c(C(=O)Nc3ccc(F)c(C#N)c3)c2F)COC1` [Compound 207] were, in that order, above 1000 nM and above 25000 nM.
The like results for `CC1(NS(=O)(=O)c2ccc(Cl)c(C(=O)Nc3ccc(F)c(C(F)(F)F)c3)c2F)COC1` [Compound 208] were, in that order, above 1000 nM and above 25000 nM.
In the same order, the values of `Cc1cc(NC(=O)c2c(Cl)ccc(S(=O)(=O)NC3(C)COC3)c2F)cc(F)c1F` [Compound 209] are 150 nM and above 25000 nM.
For `CC1(NS(=O)(=O)c2ccc(Cl)c(C(=O)Nc3cc(F)c(F)c(Cl)c3)c2F)COC1` [Compound 210], in data set [2] (setting [5]), the concentration for a half-maximal effect (EC50) was found to be 460 nM. The same molecule registered a CC50 at 4 days in data set [3] above 25000 nM.
In the case of `CC1(NS(=O)(=O)c2ccc(F)c(C(=O)Nc3ccc(F)c(F)c3)c2Cl)COC1` [Compound 211], the EC50 in data set [2] (setting [5]) is 650 nM. In data set [3], the CC50 at 4 days was above 25000 nM.
The like results for `CC1(NS(=O)(=O)c2ccc(F)c(C(=O)Nc3ccc(F)c(C(F)(F)F)c3)c2Br)COC1` [Compound 212] were, in that order, 7300 nM and above 25000 nM.
In the same order, the values of `Cc1cc(NC(=O)c2c(Br)ccc(S(=O)(=O)NC3(C)COC3)c2F)ccc1F` [Compound 213] are 280 nM and above 25000 nM.
In the same order, the values of `CC1(NS(=O)(=O)c2ccc(Br)c(C(=O)Nc3ccc(F)c(C#N)c3)c2F)COC1` [Compound 214] are above 1000 nM and above 25000 nM.
Turning to `CC1(NS(=O)(=O)c2ccc(Br)c(C(=O)Nc3ccc(F)c(C(F)(F)F)c3)c2F)COC1` [Compound 215], the EC50 in data set [2] (setting [5]) is above 1000 nM. The molecule also yielded a CC50 at 4 days in data set [3] above 25000 nM.
Turning to `Cc1cc(NC(=O)c2c(Br)ccc(S(=O)(=O)NC3(C)COC3)c2F)cc(F)c1F` [Compound 216], the EC50 in data set [2] (setting [5]) was 290 nM. The CC50 at 4 days in data set [3] was above 25000 nM.
Regarding `CC1(NS(=O)(=O)c2cccc(C(=O)Nc3ccc(F)c(C(F)(F)F)c3)c2F)COC1` [Compound 219], in data set [2] (setting [5]), the EC50 came to 460 nM. This molecule yielded a CC50 at 4 days in data set [3] above 25000 nM.
As for `Cc1cc(NC(=O)c2cccc(S(=O)(=O)NC(C)(C)C)c2F)ccc1F` [Compound 221], the EC50 in data set [2] (setting [5]) was 130 nM. The CC50 at 4 days in data set [3] was above 25000 nM.
In the same order, the values of `Cc1cc(NC(=O)c2cccc(S(=O)(=O)NC3(C)CCOC3)c2)ccc1F` (stereo not shown) [Compound 223] are 210 nM and above 25000 nM.
The like results for `Cc1cc(NC(=O)c2cc(S(=O)(=O)NC3(C)COC3)ccc2Cl)ccc1F` [Compound 232] were, in that order, 310 nM and above 25000 nM.
